SMILES strings stand for the structures.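 Exposure lasted 48 hours, with cells grown in 96-well plates and compounds tested at five concentrations. GI50 marks 50% less growth. TGI marks complete inhibition of growth.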

Among the test systems are SF-268 CNS; SK-MEL-5 melanoma; SN12C renal; HCC-2998 colon; SK-OV-3 ovarian; U251 CNS; SNB-19 CNS; M14 melanoma; HOP-62 NSCLC; UACC-257 melanoma.
What all share (test): growth of human tumour cells (NCI), 48 h

As for `CC(C)(C)N1CC(OC(N)=O)C1`, the GI50 in the assay on SF-268 CNS, in the assay with SK-MEL-5 melanoma, in the assay on SN12C renal, in the assay with HCC-2998 colon, in the assay with SK-OV-3 ovarian and in the assay on U251 CNS was greater than 100 µM in each case. In addition, the GI50 with SNB-19 CNS, in the assay on M14 melanoma, with HOP-62 NSCLC and with UACC-257 melanoma was greater than 100 µM throughout. The TGI in the assay with SF-268 CNS, in the assay on SK-MEL-5 melanoma, with SN12C renal, in the assay with HCC-2998 colon, in the assay on SK-OV-3 ovarian and in the assay on U251 CNS was greater than 100 µM each time. Besides, the TGI with SNB-19 CNS, in the assay on M14 melanoma, in the assay on HOP-62 NSCLC and in the assay on UACC-257 melanoma was greater than 100 µM each time.
Consider `CCn1cc(C(=O)N/N=C/c2cccc(F)c2)c(=O)c2cc(F)c(N3CCNC(C)C3)c(F)c21` (stereo not given), for which the GI50 in the assay on SF-268 CNS is 1.8 µM; in the assay with SK-MEL-5 melanoma, 1.75 µM; in the assay on SN12C renal it was 1.62 µM; with HCC-2998 colon, 1.86 µM; with SK-OV-3 ovarian, 1.78 µM; in the assay with U251 CNS, 1.61 µM. For the same molecule, the GI50 in the assay on SNB-19 CNS was 1.7 µM; in the assay with M14 melanoma, 1.82 µM; with HOP-62 NSCLC, 1.66 µM; in the assay with UACC-257 melanoma, 1.67 µM. Besides, the TGI came out at 3.52 µM in the assay on SF-268 CNS; 3.19 µM in the assay on SK-MEL-5 melanoma; 3.11 µM with SN12C renal; 3.53 µM with HCC-2998 colon; 3.28 µM with SK-OV-3 ovarian; 3.03 µM in the assay with U251 CNS. Also, the TGI is 3.15 µM in the assay with SNB-19 CNS, 3.37 µM with M14 melanoma, 3.09 µM with HOP-62 NSCLC and 3.17 µM with UACC-257 melanoma.
For `O=C(Nc1ccc(Cl)cc1)c1cc2cc(F)ccc2cc1O`, the GI50 is 2.46 µM in the assay on SF-268 CNS; 0.417 µM with SK-MEL-5 melanoma; 1.78 µM in the assay on SN12C renal; 3.13 µM with HCC-2998 colon; 1.08 µM in the assay on SK-OV-3 ovarian; 1.1 µM in the assay with U251 CNS. The GI50 is 2.2 µM with SNB-19 CNS, 2.23 µM in the assay with M14 melanoma, 2.01 µM with HOP-62 NSCLC and 1.34 µM with UACC-257 melanoma. Moreover, the TGI was greater than 100 µM in the assay on SF-268 CNS; 1.52 µM in the assay with SK-MEL-5 melanoma; greater than 100 µM in the assay with SN12C renal; greater than 100 µM in the assay with HCC-2998 colon; 5.76 µM with SK-OV-3 ovarian; 6.54 µM in the assay on U251 CNS. Moreover, the TGI in the assay on SNB-19 CNS was greater than 100 µM; in the assay with M14 melanoma, greater than 100 µM; with HOP-62 NSCLC, 7.56 µM; with UACC-257 melanoma it was 5.2 µM.
Consider `O=S1c2ccccc2N=C(c2ccc(Cl)cc2)CC1c1cccs1` (stereo not given), for which the TGI in the assay on SF-268 CNS was greater than 100 µM; with SK-MEL-5 melanoma it was 36.9 µM; with SN12C renal, 38 µM; with HCC-2998 colon, 36.9 µM; with SK-OV-3 ovarian it was 85.4 µM; in the assay on U251 CNS, 28.9 µM. Further, the TGI is 45.2 µM in the assay on SNB-19 CNS, 37.4 µM with M14 melanoma, greater than 100 µM in the assay with HOP-62 NSCLC and 63.5 µM with UACC-257 melanoma.
As for `CNC(=O)c1cncc(/C=C/c2c(C)cccc2C)c1`, the GI50 in the assay on SF-268 CNS was greater than 25 µM; in the assay with SK-MEL-5 melanoma, greater than 25 µM; in the assay on SN12C renal, 20.6 µM; in the assay on HCC-2998 colon, greater than 25 µM; in the assay with SK-OV-3 ovarian it was greater than 25 µM; with U251 CNS, greater than 25 µM. Further, the GI50 with SNB-19 CNS, with M14 melanoma, in the assay on HOP-62 NSCLC and with UACC-257 melanoma was greater than 25 µM in each case. Also, the TGI with SF-268 CNS, with SK-MEL-5 melanoma, in the assay on SN12C renal, in the assay with HCC-2998 colon, with SK-OV-3 ovarian and in the assay on U251 CNS was greater than 25 µM each time. Besides, the TGI in the assay on SNB-19 CNS, with M14 melanoma, in the assay on HOP-62 NSCLC and in the assay with UACC-257 melanoma was greater than 25 µM in each case.
